Measured values as given in the NIST ThermoML archive (doi:10.1016/j.jct.2016.06.004).
Numbers after ± are expanded uncertainties.

Key:
[1] = Ring tensiometer
[2] = xn = mol fraction of the nth substance listed; details: Ring tensiometer

C[S+](C)[O-] [dimethyl sulfoxide]
[1]
Details | surface tension liquid-gas [mN/m]
298.15 K | 42.43 ± 0.74
308.15 K | 41.3 ± 0.73
318.15 K | 40.17 ± 0.71
328.15 K | 39.08 ± 0.69

C[S+](C)[O-] [dimethyl sulfoxide] + CC(C)O
surface tension liquid-gas [mN/m], [2]
Details | 298.15 K | 308.15 K | 318.15 K | 328.15 K
x2 = 0 | 42.43 ± 0.74 | 41.3 ± 0.73 | 40.17 ± 0.71 | 39.08 ± 0.69
x2 = 0.044 | 39.17 ± 0.71 | 38.58 ± 0.7 | 37.9 ± 0.69 | 36.91 ± 0.67
x2 = 0.085 | 36.42 ± 0.66 | 35.88 ± 0.65 | 34.99 ± 0.64 | 34.12 ± 0.63
x2 = 0.157 | 33.83 ± 0.62 | 32.83 ± 0.6 | 32.05 ± 0.59 | 31.15 ± 0.58
x2 = 0.245 | 30.89 ± 0.57 | 30.21 ± 0.56 | 29.55 ± 0.55 | 28.39 ± 0.54
x2 = 0.338 | 28.56 ± 0.54 | 27.7 ± 0.53 | 27.02 ± 0.52 | 26 ± 0.5
x2 = 0.441 | 26.67 ± 0.51 | 25.88 ± 0.5 | 25.19 ± 0.49 | 24.1 ± 0.47
x2 = 0.537 | 25.15 ± 0.49 | 24.46 ± 0.48 | 23.87 ± 0.47 | 22.79 ± 0.45
x2 = 0.619 | 24.19 ± 0.47 | 23.39 ± 0.46 | 22.81 ± 0.45 | 21.74 ± 0.44
x2 = 0.676 | 23.19 ± 0.46 | 22.84 ± 0.45 | 22.06 ± 0.44 | 21.08 ± 0.43
x2 = 0.719 | 23.03 ± 0.46 | 22.48 ± 0.45 | 21.67 ± 0.43 | 20.72 ± 0.42
x2 = 0.751 | 22.84 ± 0.45 | 22.21 ± 0.44 | 21.43 ± 0.43 | 20.45 ± 0.42
x2 = 0.86 | 22 ± 0.44 | 21.21 ± 0.43 | 20.51 ± 0.42 | 19.59 ± 0.4

C[S+](C)[O-] [dimethyl sulfoxide] + CCO
surface tension liquid-gas [mN/m], [2]
Details | 298.15 K | 308.15 K | 318.15 K | 328.15 K
x2 = 0 | 42.43 ± 0.74 | 41.3 ± 0.73 | 40.17 ± 0.71 | 39.08 ± 0.69
x2 = 0.087 | 39.25 ± 0.7 | 38.32 ± 0.68 | 37.35 ± 0.67 | 36.37 ± 0.65
x2 = 0.174 | 36.69 ± 0.66 | 35.75 ± 0.64 | 34.88 ± 0.63 | 33.99 ± 0.62
x2 = 0.261 | 34.4 ± 0.62 | 33.6 ± 0.61 | 32.69 ± 0.6 | 31.87 ± 0.58
x2 = 0.348 | 32.29 ± 0.59 | 31.5 ± 0.58 | 30.73 ± 0.57 | 29.99 ± 0.56
x2 = 0.435 | 30.48 ± 0.56 | 29.71 ± 0.55 | 28.95 ± 0.54 | 28.22 ± 0.53
x2 = 0.522 | 28.84 ± 0.54 | 28.08 ± 0.53 | 27.33 ± 0.51 | 26.61 ± 0.5
x2 = 0.609 | 27.34 ± 0.51 | 26.58 ± 0.5 | 25.83 ± 0.49 | 25.21 ± 0.48
x2 = 0.696 | 26.04 ± 0.49 | 25.22 ± 0.48 | 24.44 ± 0.47 | 23.64 ± 0.46
x2 = 0.783 | 24.63 ± 0.47 | 23.91 ± 0.46 | 23.14 ± 0.45 | 22.36 ± 0.44
x2 = 0.87 | 23.4 ± 0.45 | 22.7 ± 0.44 | 21.91 ± 0.43 | 21.07 ± 0.42

C[S+](C)[O-] [dimethyl sulfoxide] + CO
surface tension liquid-gas [mN/m], [2]
Details | 298.15 K | 308.15 K | 318.15 K | 328.15 K
x2 = 0 | 42.43 ± 0.74 | 41.3 ± 0.73 | 40.17 ± 0.71 | 39.08 ± 0.69
x2 = 0.077 | 41.31 ± 0.73 | 40.2 ± 0.71 | 39.15 ± 0.69 | 38.06 ± 0.68
x2 = 0.154 | 40.03 ± 0.71 | 38.95 ± 0.69 | 37.91 ± 0.68 | 36.84 ± 0.66
x2 = 0.231 | 38.59 ± 0.69 | 37.54 ± 0.67 | 36.58 ± 0.66 | 35.55 ± 0.64
x2 = 0.308 | 37.1 ± 0.66 | 36.16 ± 0.65 | 35.2 ± 0.64 | 34.25 ± 0.62
x2 = 0.384 | 35.6 ± 0.64 | 34.69 ± 0.63 | 33.78 ± 0.61 | 32.84 ± 0.6
x2 = 0.462 | 34.07 ± 0.62 | 33.18 ± 0.6 | 32.31 ± 0.59 | 31.45 ± 0.58
x2 = 0.538 | 32.46 ± 0.59 | 31.62 ± 0.58 | 30.79 ± 0.57 | 29.96 ± 0.56
x2 = 0.615 | 30.84 ± 0.57 | 30.03 ± 0.56 | 29.22 ± 0.54 | 28.41 ± 0.53
x2 = 0.693 | 29.2 ± 0.54 | 28.38 ± 0.53 | 27.56 ± 0.52 | 26.79 ± 0.51
x2 = 0.769 | 27.5 ± 0.52 | 26.69 ± 0.51 | 25.84 ± 0.49 | 24.96 ± 0.48
x2 = 0.846 | 25.77 ± 0.49 | 24.89 ± 0.48 | 24.2 ± 0.47 | 23.31 ± 0.46
x2 = 0.9 | 24.56 ± 0.47 | 23.67 ± 0.46 | 22.88 ± 0.45 | 21.94 ± 0.43

CCO [ethanol]
[1]
Details | surface tension liquid-gas [mN/m]
298.15 K | 21.66 ± 0.43
308.15 K | 21.01 ± 0.42
318.15 K | 20.19 ± 0.4
328.15 K | 19.23 ± 0.39

CCO [ethanol] + C[S+](C)[O-]
[2], x1 = 1
Details | surface tension liquid-gas [mN/m]
298.15 K | 21.66 ± 0.43
308.15 K | 21.01 ± 0.42
318.15 K | 20.19 ± 0.4
328.15 K | 19.23 ± 0.39

CO [methanol]
[1]
Details | surface tension liquid-gas [mN/m]
298.15 K | 22.24 ± 0.44
308.15 K | 21.41 ± 0.42
318.15 K | 20.53 ± 0.41
328.15 K | 19.54 ± 0.4

CO [methanol] + C[S+](C)[O-]
[2], x1 = 1
Details | surface tension liquid-gas [mN/m]
298.15 K | 22.24 ± 0.44
308.15 K | 21.41 ± 0.42
318.15 K | 20.53 ± 0.41
328.15 K | 19.54 ± 0.4

CC(C)O [propan-2-ol]
[1]
Details | surface tension liquid-gas [mN/m]
298.15 K | 21.15 ± 0.43
308.15 K | 20.29 ± 0.42
318.15 K | 19.53 ± 0.4
328.15 K | 18.51 ± 0.39

CC(C)O [propan-2-ol] + C[S+](C)[O-]
[2], x1 = 1
Details | surface tension liquid-gas [mN/m]
298.15 K | 21.15 ± 0.43
308.15 K | 20.29 ± 0.42
318.15 K | 19.53 ± 0.4
328.15 K | 18.51 ± 0.39

O [water]
Details | surface tension liquid-gas [mN/m]
[1], 298.15 K | 72.05 ± 1.2
